The source of these data is patent US20230339886A1 (University of Florida Research Foundation, Incorporated, priority 2020, published 2023).

T1 sequence (P20393 with tags, fused parts or gaps DEL324-422): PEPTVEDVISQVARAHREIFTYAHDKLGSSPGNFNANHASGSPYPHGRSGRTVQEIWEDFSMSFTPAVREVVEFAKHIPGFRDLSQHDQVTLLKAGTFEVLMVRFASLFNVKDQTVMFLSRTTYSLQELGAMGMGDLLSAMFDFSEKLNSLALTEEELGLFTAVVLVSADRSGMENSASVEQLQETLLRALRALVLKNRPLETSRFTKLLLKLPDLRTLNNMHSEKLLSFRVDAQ
T1 sequence (Q9Y618 2335-2356 partner limits assumed): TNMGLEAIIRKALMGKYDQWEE

One experiment has as its target T1, REV-ERBα LBD (human; residues 281-614 Δ324-422) (Homo sapiens, UniProt P20393, DEL324-422).
T1 construct: 6×Histag-REV-ERBα LBD (human; residues 281-614 Δ324-422); made in house; host or cells: Escherichia coli
In words: TR-FRET corepressor interaction assay (REV-ERBα LBD, FITC-SMRT peptide). The format is biochemical. Conditions: FITC-SMRT peptide, read-out: REVERBα agonism (EC50 class, FRET assay). The method, then:
TR-FRET corepressor interaction assay. The time-resolved fluorescence resonance energy transfer (TR-FRET) assay was performed in black low-volume 384-well plates (Greiner). […] Ligand stocks were prepared via serial dilution in DMSO, added to wells in triplicate, and plates were incubated at 4° C. for 2 h and read using a BioTek Synergy Neo multimode plate reader. The Tb donor was excited at 340 nm; its fluorescence emission was monitored at 495 nm, and the acceptor FITC emission was measured at 520 nm; and the TR-FRET ratio was calculated as the signal at 520 nm divided by the signal at 495 nm. Data were plotted using GraphPad Prism as TR-FRET ratio vs. ligand concentration and fit to sigmoidal dose response curve equation.
What is called EC50 is the concentration at which the effect is half-maximal. `CC(C)(C)Cn1cc(CCNS(=O)(=O)C2CC2)c2ccc(-c3ccc(C(F)(F)F)cc3C(F)(F)F)cc21` [Example 481, N-(2-(6-(2,4-bis(trifluoromethyl)phenyl)-1-neopentyl-1H-indol-3-yl)ethyl)cyclopropanesulfonamide]: the EC50 was in the range of 500 to 3000 nM.

On to `Cc1cn[nH]c1-c1cc2c(cc1F)c([C@H](NS(=O)(=O)C1CC1)C(F)(F)F)cn2CC(C)C` [Example 456, (S)—N-(2,2,2-trifluoro-1-(5-fluoro-1-isobutyl-6-(4-methyl-1H-pyrazol-5-yl)-1H-indol-3-yl)ethyl)cyclopropanesulfonamide], for which the EC50 lay within 500 to 3000 nM.

As for `CC(C)(C)Cn1cc([C@H](NS(=O)(=O)C2CC2)C(F)F)c2ccc(-c3c(F)cccc3C(F)(F)F)cc21` [Example 543, (S)—N-(2,2-difluoro-1-(6-(2-fluoro-6-(trifluoromethyl)phenyl)-1-neopentyl-1H-indol-3-yl)ethyl)cyclopropanesulfonamide], the EC50 is less than 500 nM.

Take `CC(C)(C)Cn1cc([C@H](NS(=O)(=O)C2CCC2)C(F)(F)F)c2ccc(-c3ccccc3C(F)(F)F)cc21` [Example 494, (S)—N-(2,2,2-trifluoro-1-(1-neopentyl-6-(2-(trifluoromethyl)phenyl)-1H-indol-3-yl)ethyl)cyclobutanesulfonamide]: the EC50 was less than 500 nM.

`CC(C)(C)Cn1cc([C@H](NS(=O)(=O)C2CC2)C(F)(F)F)c2ccc(-c3ccccc3C(F)(F)F)nc21` [Example 491, N-[(1S)-1-[1-(2,2-dimethylpropyl)-6-[2-(trifluoromethyl)phenyl]pyrrolo[2,3-b]pyridin-3-yl]-2,2,2-trifluoro-ethyl]cyclopropanesulfonamide]: the EC50 is less than 500 nM.

With `[2H]C([2H])(n1cc([C@H](NS(=O)(=O)C2CCC2)C(F)(F)F)c2ccc(-c3ccccc3C(F)(F)F)cc21)C(C)(C)C` [Example 517, (S)—N-(1-(1-(2,2-dimethylpropyl-1,1-d2)-6-(2-(trifluoromethyl)phenyl)-1H-indol-3-yl)-2,2,2-trifluoroethyl)cyclobutanesulfonamide], the EC50 was less than 500 nM.

The experiment is the same for the next values; noted with them: Table 2, read-out: REVERBα agonism (EC50 class, FRET assay).
For `Cc1cc(-c2ccncc2)cc2c1c(CCNS(=O)(=O)N(C)C)cn2CC(C)C` [Example 202, dimethyl({2-[4-methyl-1-(2-methylpropyl)-6-(pyridin-4-yl)-1H-indol-3-yl]ethyl}sulfamoyl)amine], the EC50 was more than 3000 nM.

As for `COc1cccc(Cn2cc(CCNS(=O)(=O)N(C)C)c3ccc(-c4ccncc4)cc32)c1` [Example 147, N-{2-[6-(pyridin-4-yl)-1-(3-methoxybenzyl)-1H-indol-3-yl]ethyl}-N,N-dimethylsulfuric diamide], the EC50 fell in the range of 500 to 3000 nM.

Regarding `CC(C)Cn1cc(CCNS(=O)(=O)N(C)C)c2ccc(-c3ccc(F)cc3)cc21` [Example 45, N-{2-[6-(4-fluorophenyl)-1-(2-methylpropyl)-1H-indol-3-yl]ethyl}-N,N-dimethylsulfuric diamide], the EC50 was in the range of 500 to 3000 nM.

Turning to `CN(C)S(=O)(=O)NCCc1cn(Cc2ccc(F)cc2F)c2cc(-c3ccncc3)ccc12` [Example 149, N-{2-[6-(pyridin-4-yl)-1-(2,4-difluorobenzyl)-1H-indol-3-yl]ethyl}-N,N-dimethylsulfuric diamide], the EC50 was 500 to 3000 nM.

For the compound `CC(C)(C)Cn1cc(CCNS(=O)(=O)C2CC2)c2ccc(-c3cccc(F)c3C(F)(F)F)cc21` [Example 393, N-(2-(6-(3-fluoro-2-(trifluoromethyl)phenyl)-1-neopentyl-1H-indol-3-yl)ethyl)cyclopropanesulfonamide], the EC50 lay within 500 to 3000 nM.

Take `CC(C)Cn1cc(C(NS(=O)(=O)C(C)C)C(F)(F)F)c2ccc(-c3ccccc3C(F)(F)F)cc21` (centres unmarked) [Example 224, N-(2,2,2-trifluoro-1-(1-isobutyl-6-(2-(trifluoromethyl)phenyl)-1H-indol-3-yl)ethyl)propane-2-sulfonamide]: the EC50 lay within 500 to 3000 nM.

For the compound `CC(C)Cn1cc(CCN(C)S(=O)(=O)N(C)C)c2ccc(N(C)C)cc21` [Example 114, N′-{2-[6-N,N-dimethylamino-1-(2-methylpropyl)-1H-indol-3-yl]ethyl}-N′-methyl-N,N-dimethyl sulfuric diamide], the EC50 fell in the range of 500 to 3000 nM.

With `CCCn1cc(CCNS(=O)(=O)N(C)C)c2ccc(-c3ccncc3)cc21` [Compound 6], the EC50 was less than 500 nM.

As for `CC(C)Cn1cc(CNS(=O)(=O)C(C)C)c2cc(F)c(-c3ccncc3Cl)cc21` [Compound 268], the EC50 was less than 500 nM.

`CC(C)S(=O)(=O)NCCc1cn(CC2CCCC2)c2cc(-c3ccncc3)ccc12` [Compound 272]: the EC50 is less than 500 nM.

Take `CC(C)(C)Cc1cn(CCNS(=O)(=O)C2CC2)c2ccc(-c3ccc4cc(O)ccc4c3)cc12` [Example 211, N-(2-(5-(6-hydroxynaphthalen-2-yl)-3-neopentyl-1H-indol-1-yl)ethyl)cyclopropane sulfonamide]: the EC50 lay in the range of 500 to 3000 nM.

Regarding `CN(C)S(=O)(=O)NCCn1cc(CCC(F)(F)F)c2cc(Br)ccc21` [Example 172, N-{2-[5-bromo-3-(3,3,3-trifluoropropyl)-1H-indol-1-yl]ethyl}-N,N-dimethylsulfuric diamide], the EC50 is 500 to 3000 nM.

With `CC(C)(C)Cc1cn(CCNS(=O)(=O)C2CCC2)c2ccc(-c3ccc(C(F)(F)F)cc3C(F)(F)F)cc12` [Example 418, N-(2-(5-(2,4-bis(trifluoromethyl)phenyl)-3-neopentyl-1H-indol-1-yl)ethyl)cyclobutanesulfonamide], the EC50 was less than 500 nM.

In the case of `Cc1cn[nH]c1-c1cc2c(cc1F)c([C@H](NS(=O)(=O)C1CC1)C(F)(F)F)cn2CC(C)(C)C` [Example 381, N-[(1S)-1-[1-(2,2-dimethylpropyl)-5-fluoro-6-(4-methyl-1H-pyrazol-5-yl)indol-3-yl]-2,2,2-trifluoro-ethyl]cyclopropanesulfonamide], the EC50 was 500 to 3000 nM.

With `CC(C)S(=O)(=O)n1cc(CCNS(=O)(=O)N(C)C)c2ccc(-c3ccncc3)cc21` [Example 130, N′-{2-[6-(pyridin-4-yl)-1-isopropylsulfonyl-1H-indol-3-yl]ethyl}-N,N-dimethylsulfuric diamide], the EC50 is more than 3000 nM.

`CC(C)(C)Cc1cn(CCNS(=O)(=O)C2CC2)c2ccc(-c3nccc4ccccc34)cc12` [Example 215, N-(2-(5-(isoquinolin-1-yl)-3-neopentyl-1H-indol-1-yl)ethyl)cyclopropane-sulfonamide]: the EC50 is more than 3000 nM.

With `CC(C)Cn1cc([C@H](NS(=O)(=O)C2CC2)C(F)(F)F)c2cc(F)c(-c3ccn[nH]3)cc21` [Example 377, (S)—N-(2,2,2-trifluoro-1-(5-fluoro-1-isobutyl-6-(1H-pyrazol-5-yl)-1H-indol-3-yl)ethyl)cyclopropanesulfonamide], the concentration giving a half-maximal response (EC50) fell in the range of 500 to 3000 nM.

As for `Cc1nc2ccccn2c1-c1ccc2c([C@H](NS(=O)(=O)C3CC3)C(F)(F)F)cn(CC(C)(C)C)c2c1` [Example 385, (S)—N-(2,2,2-trifluoro-1-(6-(2-methylimidazo[1,2-a]pyridin-3-yl)-1-neopentyl-1H-indol-3-yl)ethyl)cyclopropanesulfonamide], the EC50 was in the range of 500 to 3000 nM.

As for `CC(C)(C)Cn1cc([C@H](NS(=O)(=O)C2CC2)C(F)(F)F)c2cc(F)c(-c3ccn[nH]3)cc21` [Example 380, N-[(1S)-1-[1-(2,2-dimethylpropyl)-5-fluoro-6-(1H-pyrazol-5-yl)indol-3-yl]-2,2,2-trifluoro-ethyl]cyclopropanesulfonamide], the EC50 is less than 500 nM.

For `CN(C)S(=O)(=O)NCCn1cc(CC(F)(F)F)c2cc(Cl)ccc21` [Example 152, N-{2-[5-chloro-3-(2,2,2-trifluoroethyl)-1H-indol-1-yl]ethyl}-N,N-dimethylsulfuric diamide], the EC50 is 500 to 3000 nM.

Regarding `CC(C)(C)Cn1cc([C@H](NS(=O)(=O)C2(C)CC2)C(F)(F)F)c2cc(F)c(-c3ccccc3C(F)(F)F)cc21` [Example 375, (S)-1-methyl-N-(2,2,2-trifluoro-1-(5-fluoro-1-neopentyl-6-(2-(trifluoromethyl)phenyl)-1H-indol-3-yl)ethyl)cyclopropane-1-sulfonamide], the EC50 is less than 500 nM.

As to `CC(C)c1cc2c(cc1F)c([C@H](NS(=O)(=O)C1CC1)C(F)(F)F)cn2CC(C)(C)C` [Example 336, (S)—N-(2,2,2-trifluoro-1-(5-fluoro-6-isopropyl-1-neopentyl-1H-indol-3-yl)ethyl)cyclopropanesulfonamide], the EC50 lay in the range of 500 to 3000 nM.

Consider `CC(C)Cn1cc(CCNS(=O)(=O)N(C)C)c2ccc(Cl)cc21` [Example 109, ({2-[6-chloro-1-(2-methylpropyl)-1H-indol-3-yl]ethyl}sulfamoyl)dimethylamine], for which the EC50 was less than 500 nM.

As to `CC(C)Cn1cc(CCNS(=O)(=O)N(C)C)c2cc(F)c(Br)cc21` [Example 168, ({2-[6-bromo-5-fluoro-1-(2-methylpropyl)-1H-indol-3-yl]ethyl}sulfamoyl)dimethylamine], the EC50 was less than 500 nM.

For the compound `CC(C)(C)Cn1cc([C@H](NS(=O)(=O)N2CCC2)C(F)(F)F)c2cc(F)c(-c3ccccc3C(F)(F)F)cc21` [Example 346, (S)—N-(2,2,2-trifluoro-1-(5-fluoro-1-neopentyl-6-(2-(trifluoromethyl)phenyl)-1H-indol-3-yl)ethyl)azetidine-1-sulfonamide], the EC50 is less than 500 nM.

As for `CC(C)Cn1cc(CCNS(=O)(=O)N(C)C)c2ccc(-c3ccccc3CO)cc21` [Example 76, N-{2-[6-(2-hydroxylmethylphenyl)-1-(2-methylpropyl)-1H-indol-3-yl]ethyl}-N,N-dimethyl-sulfuric diamide], the EC50 fell in the range of 500 to 3000 nM.
